Measurements reported in US20200246493A1, “DRUG-IODINATED OIL DISPERSION, METHOD FOR PREPARING SAME AND ITS APPLICATION IN EMBOLIZATION TREATMENT FOR LIVER CANCER” (Xiamen University, priority 2019, published 2020).

Settings: fluorescence intensity over time

CC1(C)C(/C=C/C=C/C=C/C=C2\N(CCCCS(=O)(=O)O)c3ccc4ccccc4c3C2(C)C)=[N+](CCCCS(=O)(=O)[O-])c2ccc3ccccc3c21 [ICG, indocyanine green]
fluorescence half-life: about three
